Experimental data: ChEMBL document CHEMBL1811891 (Bioorg Med Chem, 2011)
pIC50: −log10 of the molar value.

What was measured:
[1] = test system: Human immunodeficiency virus 1; assay: microbe, parasite or virus in culture; details: Human immunodeficiency virus 1, Ba-L
Description: Antiviral activity against R5 tropic HIV1 Ba-L infected PBMC assessed as inhibition of viral p24 antigen expression

[2] = biological target: C-C chemokine receptor type 5 (Homo sapiens, UniProt P51681); assay: Antagonist activity at human CCR5 expressed in CHO cells assessed as inhibition of MIP-1alpha-induced calcium mobilization; format: functional, cell-based
C-C chemokine receptor type 5, sequence (P51681 whole entry): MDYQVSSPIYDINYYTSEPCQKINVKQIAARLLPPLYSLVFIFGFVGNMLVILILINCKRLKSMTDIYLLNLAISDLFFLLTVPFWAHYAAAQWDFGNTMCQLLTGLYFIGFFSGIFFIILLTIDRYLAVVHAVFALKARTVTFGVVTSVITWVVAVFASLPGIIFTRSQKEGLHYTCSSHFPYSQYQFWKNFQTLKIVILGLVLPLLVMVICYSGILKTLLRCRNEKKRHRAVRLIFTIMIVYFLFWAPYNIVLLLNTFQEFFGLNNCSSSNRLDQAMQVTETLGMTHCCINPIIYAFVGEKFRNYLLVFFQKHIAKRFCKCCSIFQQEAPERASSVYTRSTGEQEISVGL

Liver microsomes [3] = assay: Metabolic stability in rat liver microsomes assessed as compound remaining after 15 mins; format: ADME, Microsome; details: 0.25 h
Liver microsomes [4] = assay: Metabolic stability in human liver microsomes assessed as compound remaining after 15 mins; format: ADME, Microsome; details: 0.25 h
[5] = AUC in rat at 3 mg/kg, iv; format: ADME, organism-based; design: dose 3 mg/kg, route intravenous; details: plasma
Rattus norvegicus [6] = assay: Dose normalized AUC in rat at 10 mg/kg, po; format: ADME, organism-based; design: dose 10 mg/kg, route oral; details: in vivo
[7] = Half life in rat at 3 mg/kg, iv; format: ADME, organism-based; design: dose 3 mg/kg, route intravenous; details: in vivo
[8] = Half life in rat at 10 mg/kg, po; format: ADME, organism-based; design: dose 10 mg/kg, route oral; details: in vivo
[9] = Clearance in rat at 3 mg/kg, iv; format: ADME, organism-based; design: dose 3 mg/kg, route intravenous; details: in vivo
Rattus norvegicus [10] = assay: Dose normalized Cmax in rat at 10 mg/kg, po; format: ADME, organism-based; design: dose 10 mg/kg, route oral; details: in vivo
[11] = Bioavailability in rat at 10 mg/kg, po; format: ADME, organism-based; details: in vivo
[12] = Cmax in rat at 10 mg/kg, po; format: ADME, organism-based; design: dose 10 mg/kg, route oral; details: in vivo

Row | SMILES | pIC50 [2] | Stability (Liver microsomes [3]) [%] | Stability (Liver microsomes [4]) [%] | also measured
1 | CCCCN1C(=O)[C@H](CC2CCCCC2)NC(=O)C12CCN(Cc1ccc(Oc3ccc(C(=O)O)cc3)cc1)CC2 |  |  |  | IC90 [1]: 171 nM
2 | CCCCN1C(=O)[C@@H]([C@H](O)C2CCCCC2)NC(=O)C12CCN(Cc1ccc(Oc3ccc(OC)cc3)cc1)CC2 | 7.04 |  |  | 
3 | CCCCN1C(=O)[C@@H]([C@H](O)C2CCCCC2)NC(=O)C12CCN(Cc1ccc(Oc3ccc(O)cc3)cc1)CC2.Cl | 7.17 | 23 | 3.5 | 
4 | CCCCN1C(=O)[C@@H]([C@H](O)C2CCCCC2)NC(=O)C12CCN(Cc1ccc(Oc3ccc(C(N)=O)cc3)cc1)CC2.Cl | 7.41 | 19 | 1.5 | 
5 | CCCCN1C(=O)[C@@H]([C@H](O)C2CCCCC2)NC(=O)C12CCN(Cc1ccc(Oc3ccc(C(=O)NC)cc3)cc1)CC2.Cl | 7.42 |  |  | AUC [5]: 3780 ng·h/mL; AUC/dose (Rattus norvegicus [6]): 1296 ng·h/mL; half-life [7]: 0.46 h; half-life [8]: 1.22 h; clearance [9]: 12.8 mL/min/kg; Cmax/dose (Rattus norvegicus [10]): 333 ng/mL; bioavailability [11]: 10%
6 | CCCCN1C(=O)[C@@H]([C@H](O)C2CCCCC2)NC(=O)C12CCN(Cc1ccc(Oc3ccc(S(N)(=O)=O)cc3)cc1)CC2 | 7.32 |  |  | 
7 | CCCCN1C(=O)[C@@H]([C@H](O)C2CCCCC2)NC(=O)C12CCN(Cc1ccc(Oc3ccc(S(C)(=O)=O)cc3)cc1)CC2 | 7.47 |  |  | 
8 | CCCCN1C(=O)[C@@H]([C@H](O)C2CCCCC2)NC(=O)C12CCN(Cc1ccc(Oc3ccc(NS(C)(=O)=O)cc3)cc1)CC2.Cl |  | 91 | 1.8 | AUC [5]: 1540 ng·h/mL; AUC/dose (Rattus norvegicus [6]): 242 ng·h/mL; half-life [7]: 2.28 h; half-life [8]: 3.42 h; clearance [9]: 25 mL/min/kg; Cmax/dose (Rattus norvegicus [10]): 50 ng/mL; bioavailability [11]: 5%
9 | CCCCN1C(=O)[C@@H]([C@H](O)C(C)C)NC(=O)C12CCN(Cc1ccc(Oc3ccc(C(=O)O)cc3)cc1)CC2.Cl | 7.32 | 100 | 98 | AUC [5]: 2310 ng·h/mL; Cmax [12]: 137 ng/mL; pIC50 [1]: 7.23; IC90 [1]: 591 nM; half-life [7]: 0.22 h; half-life [8]: 4.5 h; clearance [9]: 21.2 mL/min/kg; bioavailability [11]: 5.9%
10 | CCCCN1C(=O)[C@@H]([C@H](O)C2CC2)NC(=O)C12CCN(Cc1ccc(Oc3ccc(C(=O)O)cc3)cc1)CC2.Cl | 7.09 | 100 | 89 | 
11 | CCCCN1C(=O)[C@@H]([C@H](O)C2CCC2)NC(=O)C12CCN(Cc1ccc(Oc3ccc(C(=O)O)cc3)cc1)CC2.Cl | 7.60 | 100 | 95 | 
12 | CCCCN1C(=O)[C@@H]([C@H](O)C2CCCC2)NC(=O)C12CCN(Cc1ccc(Oc3ccc(C(=O)O)cc3)cc1)CC2.Cl | 7.48 | 100 | 93 | 
13 | CCCCN1C(=O)[C@@H]([C@H](O)C2CCCCCC2)NC(=O)C12CCN(Cc1ccc(Oc3ccc(C(=O)O)cc3)cc1)CC2.Cl | 7.49 | 59 | 34 | 
14 | CCCCN1C(=O)[C@@H]([C@H](O)C2CCOCC2)NC(=O)C12CCN(Cc1ccc(Oc3ccc(C(=O)O)cc3)cc1)CC2 | 6.92 |  |  | 
15 | CCCCN1C(=O)[C@@H]([C@H](O)C2CCC(O)CC2)NC(=O)C12CCN(Cc1ccc(Oc3ccc(C(=O)O)cc3)cc1)CC2.Cl (some centres undefined) | 6.85 | 100 | 100 | 
16 | CCCCN1C(=O)[C@@H]([C@@H](O)C2CCC(O)CC2)NC(=O)C12CCN(Cc1ccc(Oc3ccc(C(=O)O)cc3)cc1)CC2.Cl (some centres undefined) | 7.64 | 92 |  | 
17 | CN1C(=O)[C@@H]([C@H](O)C2CCCCC2)NC(=O)C12CCN(Cc1ccc(Oc3ccc(C(=O)O)cc3)cc1)CC2 | 7.30 |  |  | 
18 | CCN1C(=O)[C@@H]([C@H](O)C2CCCCC2)NC(=O)C12CCN(Cc1ccc(Oc3ccc(C(=O)O)cc3)cc1)CC2 | 7.64 |  |  | 
19 | CCN1C(=O)[C@@H]([C@H](O)C2CCCCC2)NC(=O)C12CCN(Cc1ccc(Oc3ccc(C(=O)NC)cc3)cc1)CC2 | 7.70 |  |  | 
